# Results published in patent US4026888A, “Certain derivatives of particular 3-thiolated cephalosporins” (priority 1976, dated 1977).
# Tests used:
# Water solubility = type: physicochemical; details: in water at 23° C., read-out: Water solubility
# Stability of solids = type: physicochemical; details: solid, read-out: Loss of bioactivity on storage at elevated temperatures
# E. coli A15119 = test: Oral PD50 in mice; type: in vivo; details: Escherichia coli, A15119, po, 3.5 h, oral; mice treated at 1 and 3.5 hours post-challenge; read-out: PD50
# Procedure: (§1) Comparative Oral PD50 Values of
# (§2) BL-S640 Derivatives in Mice
# (§3) *Mice were treated at 1 and 3.5 hours post-challenge.
# K. pneumoniae A9977 [1] = test: Oral PD50 in mice; type: in vivo; details: Klebsiella pneumoniae, A9977; oral; mice treated at 1 and 3.5 hours post-challenge; read-out: PD50
# Procedure: as §1, §2, §3
# P. mirabilis A9707 = test: Oral PD50 in mice; type: in vivo; details: Proteus mirabilis, mice treated at 1 and 3.5 hours post-challenge
# Procedure: as §1, §2, §3
# S. pyogenes A9604 = test: Oral PD50 in mice; type: in vivo; details: Streptococcus pyogenes, mice treated at 1 and 3.5 hours post-challenge
# Procedure: as §1, §2, §3
# P. mirabilis A9900 [2] = test: Oral PD50 in mice; type: in vivo; details: oral, mice treated at 1 and 3.5 hours post-challenge
# P. mirabilis A9900 [3] = test: IM PD50 in mice; type: in vivo; details: Proteus mirabilis
# Excerpt: Comparative IM PD50 Values of
# as §2
# Str. pneumoniae A9585 = test: Antibiotic activity in nutrient broth (MIC); type: cell-based; details: Streptococcus pneumoniae, A9585, inoculum 10^-3 dilution of overnight broth culture; 45% AAB + 5% serum + 50% broth; derivatives adjusted for BL-S640 content
# Excerpt: (§4) Antibiotic Activity In Nutrient Broth
# (§5) * 45% AAB+ 5% serum+ 50% broth listed above.
# (§6) ** Dilution of overnight broth culture.
# (§7) Antibiotic Spectrum Nutrient Broth
# (§8) * 45% AAB + 5% serum + 50% broth
# (§9) Antibiotic Spectrum in Nutrient Broth
# (§10) *45% AAB + 5% serum + 50% broth listed above.
# Str. pyogenes A9604 = test: Antibiotic activity in nutrient broth (MIC); type: cell-based; details: Streptococcus pyogenes, A9604, inoculum 10^-3; 45% AAB + 5% serum + 50% broth; derivatives adjusted for BL-S640 content; read-out: MIC
# Excerpt: as §4, §5, §6, §7, §8, §9, §10
# E. coli A9675 = test: Antibiotic activity in nutrient broth (MIC); type: cell-based; details: Escherichia coli, A9675
# Excerpt: as §4, §6, §7, §9
# E. coli Juhl A15119 = test: Antibiotic activity in nutrient broth (MIC); type: cell-based; details: Escherichia coli, JUHLA15119
# Excerpt: as §4, §6, §7, §9
# Ent. cloacae A9656 = test: Antibiotic activity in nutrient broth (MIC); type: cell-based; details: Enterobacter cloacae, A9656, inoculum 10^-4; derivatives adjusted for BL-S640 content
# Excerpt: as §4, §6, §7, §9
# Ent. cloacae A9657 = test: Antibiotic activity in nutrient broth (MIC); type: cell-based; details: Enterobacter cloacae, A9657, inoculum 10^-4; derivatives adjusted for BL-S640 content; read-out: MIC
# Excerpt: as §4, §6, §7, §9
# Ent. cloacae A9659 = test: Antibiotic activity in nutrient broth (MIC); type: cell-based; details: Enterobacter cloacae, A9659
# Excerpt: as §4, §6, §7, §9
# K. pneumoniae A15130 = test: Antibiotic activity in nutrient broth (MIC); type: cell-based; details: Klebsiella pneumoniae, A15130
# Excerpt: as §4, §6, §7, §9
# K. pneumoniae A9977 [4] = test: Antibiotic activity in nutrient broth (MIC); type: cell-based; details: Klebsiella pneumoniae
# Excerpt: as §4, §6, §7, §9
# Pr. mirabilis A9900 = test: Antibiotic activity in nutrient broth (MIC); type: cell-based; details: Proteus mirabilis, inoculum 10^-4, derivatives adjusted for BL-S640 content
# Excerpt: as §4, §6, §7, §9
# Pr. morganii A15153 = test: Antibiotic activity in nutrient broth (MIC); type: cell-based; details: Morganella morganii, A15153
# Excerpt: as §4, §6, §7, §9
# Ps. aeruginosa A9843A = test: Antibiotic activity in nutrient broth (MIC); type: cell-based; details: Pseudomonas aeruginosa
# Excerpt: as §4, §6, §7, §9
# S. aureus BX1633 A9606 = test: Antibiotic activity in nutrient broth (MIC); type: cell-based; details: Staphylococcus aureus, derivatives adjusted for BL-S640 content
# Excerpt: as §4, §6, §7, §9
# [5] = system: S. aureus Meth-Res A15097; test: Antibiotic activity in nutrient broth (MIC); type: cell-based; details: Staphylococcus aureus
# Excerpt: as §4, §6, §7, §9
# S. aureus Smith A9537 = test: Antibiotic activity in nutrient broth (MIC); type: cell-based; details: Staphylococcus aureus, SMITHA9537, inoculum 10^-4, derivatives adjusted for BL-S640 content
# Excerpt: as §4, §6, §7, §9
# Sal. enteritidis A9531 = test: Antibiotic activity in nutrient broth (MIC); type: cell-based; details: Salmonella enterica, ENTERITIDIS, inoculum 10^-4; derivatives adjusted for BL-S640 content; read-out: MIC
# Excerpt: as §4, §6, §7, §9
# Ser. marcescens A20019 = test: Antibiotic activity in nutrient broth (MIC); type: cell-based; details: Serratia marcescens, A20019, inoculum 10^-4; derivatives adjusted for BL-S640 content
# Excerpt: as §4, §6, §7, §9
structure (smiles),measurement,setting,value
"N[C@@H](C(=O)N[C@@H]1C(=O)N2C(C(=O)O)=C(CSc3c[nH]nn3)CS[C@H]12)c1ccc(O)cc1 [7-[D-α-amino-α-(p-hydroxyphenyl)acetamido]-3-(1,2,3-triazol-5-ylthiomethyl)-3-cephem-4-carboxylic acid propylene glycol solvate]",solubility,Water solubility,~10000 µg/mL
same,degraded at 720 h,"Stability of solids; 56° C., 1 month",< 10%
same,degraded at 24 h,"Stability of solids; 100° C., 24 hours",< 6%
same,degraded at 48 h,"Stability of solids; 100° C., 48 hours",< 12%
"CC1=C(C(=O)O)N2C(=O)[C@@H](NC(=O)[C@H](N)c3ccccc3)[C@H]2SC1 [Cephalexin, reference compound]",ED50,E. coli A15119,13 mg/kg
same,ED50,K. pneumoniae A9977 [1],43 mg/kg
same,ED50,P. mirabilis A9707,50 mg/kg
same,ED50,S. pyogenes A9604,11 mg/kg
same,ED50,"P. mirabilis A9900 [2]; Proteus mirabilis, A9900, po, 3.5 h, read-out: PD50",66 mg/kg
same,PD50,P. mirabilis A9900 [2],55 mg./kg./treatment
same,ED50,P. mirabilis A9900 [3],50 mg/kg
"CC(=O)OCC1=C(C(=O)O)N2C(=O)[C@@H](NC(=O)Cc3cccs3)[C@H]2SC1 [Cephalothin, reference compound]",MIC,Str. pneumoniae A9585,0.03 µg/mL
same,MIC,Str. pyogenes A9604,0.03 µg/mL
same,MIC,E. coli A9675,32 µg/mL
same,MIC,E. coli Juhl A15119,16 µg/mL
same,MIC,Ent. cloacae A9656,> 125 µg/mL
same,MIC,Ent. cloacae A9657,8 µg/mL
same,MIC,Ent. cloacae A9659,> 125 µg/mL
same,MIC,K. pneumoniae A15130,32 µg/mL
same,MIC,K. pneumoniae A9977 [4],1 µg/mL
same,MIC,Pr. mirabilis A9900,1 µg/mL
same,MIC,Pr. morganii A15153,> 125 µg/mL
same,MIC,Ps. aeruginosa A9843A,> 125 µg/mL
same,MIC,"S. aureus BX1633 A9606; BX1633A9606, inoculum 10^-2",0.25 µg/mL
same,MIC,"S. aureus BX1633 A9606; BX1633A9606, inoculum 10^-3",0.13 µg/mL
same,MIC,[5],1 to 16 µg/mL
same,MIC,S. aureus Smith A9537; + 50% serum,0.5 µg/mL
same,MIC,S. aureus Smith A9537; nutrient broth,0.13 µg/mL
same,MIC,Sal. enteritidis A9531,0.25 µg/mL
same,MIC,Ser. marcescens A20019,> 125 µg/mL
